Measurements reported in PMC5344036 (Molecular imaging and biology : MIB : the official …, 2014).
pKd: −log10 of the molar value. Where two headings read alike, the source gives them in different places. Blank lines part the entries; values can stand above or below the molecule they belong to.

Tests used:
α7-nAChR [1] = biological target: α7-nAChR (Mus musculus, UniProt P49582); type: in vivo, CD1 mice; conditions: 90 min post-tracer
α7-nAChR [2] = conditions: baboon brain, prior studies of the authors; cited from earlier work
α7-nAChR [3] = conditions: monkey PET, injection of SSR180711; cited from earlier work
α7-nAChR [4] = conditions: mouse brain, prior studies of the authors; cited from earlier work
α7-nAChRs = conditions: read-out: equilibrium dissociation constant KD; rat; cited from earlier work
α7-nAChR [5] = conditions: rat hippocampus or human α7-nAChR recombinant membranes; cited from earlier work
α7-nAChR [6] = biological target: T1, α7-nAChR (Homo sapiens, UniProt P36544); conditions: single human PET experiment; cited from earlier work
α7-nAChR [7] = biological target: T1, α7-nAChR; assay: Human PET brain imaging with [^18F]ASEM; type: in vivo
[8] = [^18F]ASEM metabolite analysis in human plasma; type: in vivo; conditions: for parent [^18F]ASEM metabolized: human plasma

T1 sequence (P36544 23-502): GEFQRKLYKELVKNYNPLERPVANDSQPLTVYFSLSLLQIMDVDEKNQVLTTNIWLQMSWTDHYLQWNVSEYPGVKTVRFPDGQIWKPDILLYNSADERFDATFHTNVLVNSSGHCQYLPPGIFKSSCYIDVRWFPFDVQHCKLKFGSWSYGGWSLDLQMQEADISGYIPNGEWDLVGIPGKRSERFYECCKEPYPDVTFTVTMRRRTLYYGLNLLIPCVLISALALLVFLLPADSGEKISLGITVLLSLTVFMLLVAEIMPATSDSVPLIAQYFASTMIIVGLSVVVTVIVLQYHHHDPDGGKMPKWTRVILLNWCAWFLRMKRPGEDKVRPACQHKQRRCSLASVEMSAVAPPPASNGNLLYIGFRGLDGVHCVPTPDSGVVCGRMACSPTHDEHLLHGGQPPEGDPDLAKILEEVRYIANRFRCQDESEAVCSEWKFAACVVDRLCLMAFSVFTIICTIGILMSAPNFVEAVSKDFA
Sequence of α7-nAChR (Mus musculus, UniProt P49582) (P49582 23-502): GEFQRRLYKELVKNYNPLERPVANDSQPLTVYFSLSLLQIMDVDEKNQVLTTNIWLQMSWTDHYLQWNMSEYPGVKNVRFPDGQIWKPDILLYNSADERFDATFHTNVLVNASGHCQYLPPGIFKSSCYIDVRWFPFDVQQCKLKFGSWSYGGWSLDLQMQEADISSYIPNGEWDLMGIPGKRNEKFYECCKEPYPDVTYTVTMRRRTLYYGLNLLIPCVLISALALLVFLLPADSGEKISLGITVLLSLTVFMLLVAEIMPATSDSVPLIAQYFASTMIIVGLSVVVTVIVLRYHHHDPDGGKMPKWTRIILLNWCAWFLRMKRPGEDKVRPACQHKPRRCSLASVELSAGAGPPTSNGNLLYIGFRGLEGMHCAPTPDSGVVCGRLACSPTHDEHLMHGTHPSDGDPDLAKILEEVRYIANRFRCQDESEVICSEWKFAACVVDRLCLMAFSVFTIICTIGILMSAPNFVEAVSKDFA

blockade of [^18F]ASEM binding (α7-nAChR [1]; 3 mg/kg IP, hippocampus, p<0.05): 28%
blockade of [^18F]ASEM binding (α7-nAChR [1]; 10 mg/kg IP, hippocampus, cortex, subcolliculus, p<0.01): 50–70%
blockade of [^18F]ASEM binding (α7-nAChR [1]; 0.1, 0.3 and 1 mg/kg IP): did not show significant blockade
Compound: COc1ccc(/C=C2\CCCN=C2c2cccnc2)c(OC)c1 [DMXB-A, Dimethoxybenzylidene anabaseine]

Compound: O=C(Oc1ccc(Br)cc1)N1CCN2CCC1CC2 [SSR180711]
blockade of [^18F]ASEM binding (α7-nAChR [2]): successfully blocked
reduction of [^11C]CHIBA-1001 radioactivity in the high uptake regions (α7-nAChR [3]): 25–30%
blockade of [^18F]ASEM binding (α7-nAChR [4]): successfully blocked

Compound: Cc1ccc(OC(=O)N2CCN3CCC2CC3)cc1 [[^3H]CHIBA-1001]
pKd (α7-nAChRs): 6.71
pKd (α7-nAChR [5]): 6.74 to 6.92

Compound: [11CH3]c1ccc(OC(=O)N2CCN3CCC2CC3)cc1 [[^11C]CHIBA-1001]
target-to-non-target ratios in the brain regions (α7-nAChR [6]): < 1.3

Compound: O=S1(=O)c2cc(N3CCN4CCC3CC4)ccc2-c2cccc([18F])c21 [[^18F]ASEM, 3-(1,4-diazabicyclo[3.2.2]nonan-4-yl)-6-[^18F]fluorodibenzo[b,d]thiophene 5,5-dioxide]
distribution volume VT, lower-binding regions (α7-nAChR [7]; entorhinal cortex, cerebellum, caudate, corpus callosum, PRGA): < 15 ml/ml
time of peak brain uptake post-injection (α7-nAChR [7]; human brain, after IV bolus injection): 15 min
test-retest variability (TRV) of VT (α7-nAChR [7]; medium and high VT regions, two subjects, two scans separated by a few days): 10.8±5.1%
time of plasma TAC peak ([8]; human arterial plasma): ≤ 1 min
parent [^18F]ASEM metabolized ([8]; 30 min post-injection): 52.6±12.9%
parent [^18F]ASEM metabolized ([8]; 90 min post-injection): 83.5±9.7%
